The source of these data is PMC5477094, “Antiresorptive effect of a cathepsin K inhibitor ONO-5334 and its relationship to BMD increase in a phase II trial for postmenopausal osteoporosis” (BMC Musculoskeletal Disorders, 2017).

Read-outs that look alike come from different tables or passages of the source.

Data set [1] concerns serum C-telopeptide of type I collagen (sCTX). In words: Simulation of sCTX inhibition from plasma ONO-5334 concentrations with sigmoidal Emax model. Further details: species or system human. The text has this:
PK data from the MAD study and the relationship between plasma ONO-5334 levels and sCTX inhibition in healthy postmenopausal women obtained from the PKPD study were used in simulation of the antiresorptive effect of ONO-5334 [29, 31]. Our previous PK data for 14 days after repeated administration were also used in the simulation. sCTX inhibition for doses and regimens in the OCEAN study were simulated using plasma ONO-5334 levels and the sigmoidal Emax model in the PKPD study (Fig. 1). The sigmoidal Emax model was fitted to data using log-transformed ONO-5334 plasma concentrations and effects on sCTX inhibition, using the following equation [32]. Effect=E0+Emax×C^r/EC50r+C^r

Data set [2] has as its system postmenopausal women with osteoporosis or osteopenia. In words: BMD increase (DXA) in the OCEAN study and linear regression against mean sCTX inhibition over 24 h. Format: in vivo, human. The following applies: at 1 year. The procedure: PK data at 50 mg BID, 100 mg QD and 300 mg QD were used from the 15-day multiple-dosing cohort in a phase 1 study of ONO-5334 IR tablets (MAD study, n = 96). The MAD study was a randomized, double-blind, single-center study conducted at the Kendle Clinical Pharmacology Unit, Utrecht, The Netherlands, from April to November 2006 (EudraCT: not applicable). The sigmoidal relationship (Emax model) between plasma ONO-5334 concentrations and sCTX inhibition was taken from a study using SR tablets of ONO-5334 (PKPD study, n = 10). The PKPD study was a phase 1, 2-part (4- and 2-way crossover), open-label, randomized trial conducted at Pharmaceutical Profiles, Ruddington, Nottingham, United Kingdom, from January 2008 to April 2008 (European Union Clinical Trials Register [EudraCT]: 2007–005206-47). Data for sCTX inhibition and increase in BMD after 1 year of treatment were taken from the OCEAN study (n = 285). […]
The relationship of sCTX inhibition for 24 h and the mean increase in BMD for the lumbar spine (L1-L4) and total hip after 1 year of treatment in the OCEAN study were analyzed. BMD in the OCEAN study was measured using dual-energy X-ray absorptiometry (DXA) (Prodigy, GE Lunar, Madison, WI, USA). […]

The next data set in a line: Solubility of ONO-5334. Format: physicochemical. The following applies: at acidic pH.
For data set [3], the system named is serum C-telopeptide of type I collagen (sCTX). The arrangement: method as in PMID 26188109. Conditions: PKPD study, SR tablets, cited from earlier work.
The conditions of data set [4]: at 12 h after administration in MAD study, cited from earlier work.
On the set-up of data set [5]: method as in earlier work. The following applies: at morning on 12 month in the OCEAN study, full analysis set, cited from earlier work.
The subject of data set [6] is postmenopausal women with osteoporosis or osteopenia. Further details: method as in PMID 21312264, PMID 23873670. Conditions: OCEAN study, cited from earlier work.
The conditions of data set [7]: cited from earlier work.
Data set [8] has as its system postmenopausal women with osteoporosis or osteopenia. The arrangement: method as in PMID 21312264, PMID 23873670. The following applies: 300 mg QD, OCEAN study; cited from earlier work.

`C[C@@H]1CS/C(=N\NC(=O)C(=O)[C@@H](NC(=O)C2CCCCCC2)C2CCOCC2)N1C` [ONO-5334]: the results for the “Cmax relative to the concentration required for 99% Emax” value in data set [1] (50 mg BID), in [1] (100 mg QD) and in [1] (300 mg QD) were 4 times, 14 times and 56 times, respectively. For the same compound, the “maximum BMD increase (100% Emax for 24 h) calculated by linear regression” value in [2] (lumbar spine) is 4.85%; in data set [2] (total hip), 3.05%. The solubility entry in the data set “Solubility of ONO-5334” is recorded as “high”. Further, the “effect span (Emax) of sigmoidal Emax model for sCTX” value in [3] is listed as −54.0%. In addition, in data set [3] (plasma concentration), the “half-maximal effective concentration of ONO-5334 (EC50) for sCTX inhibition” value is on record as 2.07 ng/mL. The “Plasma ONO-5334 concentration (Mean ± SD)” value in data set [4] (50 mg BID) was 1.82 ± 0.33 ng/mL; in data set [4] (100 mg QD) it was 2.74 ± 0.99 ng/mL; in data set [4] (300 mg QD), 14.5 ± 6.33 ng/mL; in data set [5] (50 mg BID) it was 2.51 ± 1.60 ng/mL; in data set [5] (100 mg QD) it was 4.51 ± 3.26 ng/mL; in data set [5] (300 mg QD) it was 14.4 ± 10.6 ng/mL. For the same compound, in data set [6] (50 mg BID and 300 mg QD), the “effect on BMD” value was “increased BMD at all measured sites”. In addition, in data set [6] (100 mg QD), the “efficacy for increasing BMD compared to 50 mg BID and 300 mg QD” value is “less efficacy”. Besides, the “PK parameters, Cmax and AUC, postprandial administration compared with a fasted state” value in data set [7] was “do not differ significantly”. In addition, in [7] (repeated administration, after the first administration, earlier phase I studies), the “time for trough plasma ONO-5334 level to reach steady state” value was 2 days. In addition, the safety entry in data set [8] is “no safety concerns”.
